{
  "source": "the supplement of paper PMC10307832",
  "experiment_in_all_cases": "relative viability (nuclei count vs DMSO), 5 days (fraction); higher = more cells survive",
  "key": {"[1]": {"compound": "C1CNCCC1C2=CC(=NN2)C3=CC=NC=C3 + O=C(c1cc(Cc2n[nH]c(=O)c3ccccc23)ccc1F)N1CCN(C(=O)C2CC2)CC1 [Olaparib] (partner 8 µM)", "method_in_brief": "(§1)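 Relative viability is defined as nuclei in treated wells over nuclei in vehicle wells. Duplicate plates were run and medians reported. Lung cancer cell lines in 1536-well plates were dosed by pin tool one day after seeding, with one drug or with a fixed anchor-drug dose plus five library-drug doses (not always all listed) in √10 steps, and nuclei were counted after 5 days.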"}, "[2]": {"compound": "C[C@@H](N)c1ccc(C(=O)Nc2ccnc3[nH]ccc23)cc1 + CC(=O)Nc1cccc(-n2c(=O)n(C3CC3)c(=O)c3c(Nc4ccc(I)cc4F)n(C)c(=O)c(C)c32)c1 [Trametinib] (partner 0.02 µM)", "method_in_brief": "as §1"}, "[3]": {"compound": "O[C@H]1CC[C@H](Nc2ncc3nc(Nc4c(F)cc(F)cc4F)n([C@H]4CCOC4)c3n2)CC1 [Tanzisertib] + CS(=O)(=O)CCNCc1ccc(-c2ccc3ncnc(Nc4ccc(OCc5cccc(F)c5)c(Cl)c4)c3c2)o1 [Lapatinib] (partner 2 µM)", "method_in_brief": "as §1"}, "[4]": {"compound": "O[C@H]1CC[C@H](Nc2ncc3nc(Nc4c(F)cc(F)cc4F)n([C@H]4CCOC4)c3n2)CC1 [Tanzisertib] + Cc1nc(Nc2ncc(C(=O)Nc3c(C)cccc3Cl)s2)cc(N2CCN(CCO)CC2)n1 [Dasatinib] (partner 0.075 µM)", "method_in_brief": "as §1"}},
  "data": [
    {"cell line": "UMC-11", "values": [
      {"measurement": "relative viability", "setting": "[1]; first compound 0.08 µM", "value": 0.403},
      {"measurement": "relative viability", "setting": "[1]; first compound 0.8 µM", "value": 0.379},
      {"measurement": "relative viability", "setting": "[1]; first compound 2.53 µM", "value": 0.436},
      {"measurement": "relative viability", "setting": "[1]; first compound 8 µM", "value": 0.365},
      {"measurement": "relative viability", "setting": "[2]; first compound 0.04 µM", "value": 0.867},
      {"measurement": "relative viability", "setting": "[2]; first compound 0.1265 µM", "value": 0.767},
      {"measurement": "relative viability", "setting": "[2]; first compound 0.4 µM", "value": 0.849},
      {"measurement": "relative viability", "setting": "[2]; first compound 1.265 µM", "value": 0.184},
      {"measurement": "relative viability", "setting": "[2]; first compound 4 µM", "value": 0.525},
      {"measurement": "relative viability", "setting": "[3]; first compound 0.08 µM", "value": 1.13},
      {"measurement": "relative viability", "setting": "[3]; first compound 0.253 µM", "value": 0.974},
      {"measurement": "relative viability", "setting": "[3]; first compound 0.8 µM", "value": 1.1},
      {"measurement": "relative viability", "setting": "[3]; first compound 2.53 µM", "value": 0.89},
      {"measurement": "relative viability", "setting": "[3]; first compound 8 µM", "value": 0.84},
      {"measurement": "relative viability", "setting": "[4]; first compound 0.08 µM", "value": 0.487},
      {"measurement": "relative viability", "setting": "[4]; first compound 0.253 µM", "value": 0.456},
      {"measurement": "relative viability", "setting": "[4]; first compound 0.8 µM", "value": 0.437},
      {"measurement": "relative viability", "setting": "[4]; first compound 2.53 µM", "value": 0.449},
      {"measurement": "relative viability", "setting": "[4]; first compound 8 µM", "value": 0.48}
    ]}
  ]
}
